Converted amounts (≈) assume the structure as drawn.

The solubility (kinetic) is the concentration staying in solution when a stock, usually in DMSO, is diluted into the medium.

The conditions of the data set: buffer; pH 7.4; 200.0 µM.
As for `Cc1ccc(C)c(NC(=O)c2cc([N+](=O)[O-])cc([N+](=O)[O-])c2)c1`, the solubility (kinetic) worked out at 0.6 µg/mL (≈ 1.9 µM).

`O=C(Nc1ccc2ccccc2c1)c1ccc(Br)o1` yielded a solubility (kinetic) of 4.9 µg/mL (≈ 15.5 µM).

Regarding `N#CCCC1CCCC=C1N(Cc1ccccc1)C(=O)C(Cl)Cl` (stereo unspecified), the solubility (kinetic) is above 52.7 µg/mL.

Compound `O=[N+]([O-])c1ccc2nc(-c3cccnc3)[nH]c2c1` displayed a solubility (kinetic) above 36 µg/mL.

Turning to `c1ccc(-c2noc(-c3ccno3)n2)nc1`, the kinetic solubility is 25.4 µg/mL (≈ 119 µM).

On to `Cc1cc(C)nc(Nc2ccc(O)cc2)n1`, for which the kinetic solubility was above 32.3 µg/mL.

With `COc1cccc(CC(=O)Nc2ccccc2N2CCCC2)c1`, the solubility (kinetic) turned out to be 43.9 µg/mL (≈ 141 µM).

`Cc1ccc(S(=O)(=O)N2CCOCC2)cc1NC(=O)COC(=O)COc1ccccc1[N+](=O)[O-]` gave a solubility (kinetic) of 72.2 µg/mL (≈ 146 µM).

`CCCC(C(=O)Nc1ccc2c(C)cc(=O)oc2c1)c1ccccc1` (stereo unspecified) yielded a solubility (kinetic) of 2.9 µg/mL (≈ 8.65 µM).

Compound `Cc1ccc(NC(=S)N2CCCC2)cc1C` came in with a kinetic solubility above 35.2 µg/mL.

The compound `Cc1cccn2c(=O)nc(SCC(=O)NCc3ccc(F)cc3)nc12` had a kinetic solubility above 53.8 µg/mL.

`COCCNC(=O)COCc1cc(-c2ccc3c(c2)OCO3)on1` displayed a kinetic solubility above 50.1 µg/mL.

Turning to `CCc1cc2c(=O)oc(-c3ccc(F)cc3)nc2s1`, the solubility (kinetic) is below 0.6 µg/mL.

The compound `CCOc1ccc2oc(C(=O)NCC(C)(C)CN(C)C)c(C)c2c1.Cl` showed a kinetic solubility of 48.4 µg/mL.

Compound `Cc1c(N2C(=O)c3cccc4cccc(c34)C2=O)cnn1C` registered a kinetic solubility above 43.7 µg/mL.

For the compound `CCOc1ccc(N(C(=O)c2cc3ccccc3oc2=O)C2C=CS(=O)(=O)C2)cc1` (stereo unspecified), the kinetic solubility was above 63.8 µg/mL.

For `CCC(C)c1ccccc1NC(=O)c1[nH]c(C)c(C(C)=O)c1C` (stereo unspecified), the solubility (kinetic) is 2 µg/mL (≈ 6.4 µM).

For `COc1ccccc1NC(=O)C1=C(C)NC(=O)NC1c1ccco1` (stereo unspecified), the kinetic solubility was above 49.1 µg/mL.

In the case of `CC(C)(C)c1cc(CCC(=O)Nc2ccncc2)cc(C(C)(C)C)c1O`, the solubility (kinetic) stood at 40.4 µg/mL (≈ 114 µM).

`Cc1cc(C)cc(N(CCC#N)C(=O)CSc2nc3ccccc3c(=O)[nH]2)c1` registered a solubility (kinetic) of 28.8 µg/mL (≈ 73.4 µM).

As for `CCN1C(=O)c2ccc(C(=O)Nc3ccc4c(c3)OCO4)cc2C1=O`, the kinetic solubility amounted to 0.5 µg/mL (≈ 1.48 µM).

`O=C(C[n+]1ccncc1)c1ccccc1.[Br-]` displayed a solubility (kinetic) of 6.4 µg/mL.

For `Cc1ccc(/C(O)=C/c2nc3cc(C)ccc3oc2=O)cc1`, the kinetic solubility came to 12 µg/mL (≈ 40.9 µM).

In the case of `CC1=Nc2cc([N+](=O)[O-])ccc2NC(C)(C)C1`, the solubility (kinetic) stood at 17 µg/mL (≈ 72.9 µM). This solubility kinetic and that of the compound before are within 1.5-fold of each other.

Take `COc1cccc(NCc2cc(=O)oc3cc(C)c(C(C)C)cc23)c1`: the solubility (kinetic) is 2.8 µg/mL (≈ 8.3 µM).

With `Oc1ccc2ccccc2c1CN1CCN(C/C=C/c2ccccc2)CC1`, the solubility (kinetic) was determined as 10.1 µg/mL (≈ 28.2 µM).

As to `CC(C(O)c1ccc(O)cc1)N1CCC(Cc2ccccc2)CC1.O=C(O)C(O)C(O)C(=O)O` (stereo unspecified), the kinetic solubility was above 71.3 µg/mL.

In turn, `Cc1cccc(NC(=S)NCCc2ccc3c(c2)OCCO3)c1C` showed a kinetic solubility of 27.7 µg/mL (≈ 80.9 µM).

With `Cc1ccc(S(=O)(=O)N2CC(C(=O)O)Oc3ccccc32)cc1` (stereo unspecified), the kinetic solubility was above 50 µg/mL.

`COc1cccc(NC(=O)CN(C)C(C)C(=O)N2CCCC2)c1` (stereo unspecified) came in with a kinetic solubility of 44.4 µg/mL (≈ 139 µM).

For `CC(Nc1nc(C(F)(F)F)nc2ccccc12)c1cccs1` (stereo unspecified), the solubility (kinetic) was found to be 6.5 µg/mL (≈ 20.1 µM).

In the case of `CCCCN(C(=O)c1cc(-c2ccncc2)nc2ccccc12)c1c(N)n(CC(C)C)c(=O)[nH]c1=O`, the solubility (kinetic) was determined as 10 µg/mL (≈ 20.6 µM).

`S=C(Nc1ccc2c(c1)OCCO2)Nc1ccccc1Cl` showed a solubility (kinetic) above 48.1 µg/mL.

Take `c1cc2c(cc1CN1CCNCC1)OCO2`: the kinetic solubility came out at 31.8 µg/mL (≈ 144 µM).

`O=c1cc[nH]c2ccc(OC(F)(F)F)cc12`: the solubility (kinetic) is above 34.4 µg/mL.

For the compound `COc1cc(C(=O)Nc2nc(C)cc(C)n2)cc(OC)c1OC`, the solubility (kinetic) was determined as 45.4 µg/mL (≈ 143 µM).

The compound `O=C(COC(=O)COc1ccccc1F)Nc1cccc(S(=O)(=O)N2CCCCC2)c1` had a kinetic solubility of 47.8 µg/mL (≈ 106 µM).

The compound `O=S(=O)(c1ccccc1)c1cnc(-c2ccccc2)nc1N1CCCC1` yielded a kinetic solubility below 0.3 µg/mL.

Consider `Cc1nnc(NS(=O)(=O)c2ccc(N)cc2)s1`, for which the kinetic solubility is above 40.5 µg/mL.

Compound `CN(C)CCn1c(=S)[nH]c2ccc(Cl)cc2c1=O` showed a solubility (kinetic) above 42.6 µg/mL.

Consider `O=C(c1cn(Cc2ccccc2)c2ccccc12)C1CC1`, for which the kinetic solubility is below 0.6 µg/mL.

For the compound `CN1CCN(c2ccc(NC(=O)c3cc4ccccc4o3)cc2)CC1`, the kinetic solubility was 19.6 µg/mL (≈ 58.4 µM).

In turn, `Cc1cccc(C(=O)OCC(=O)NC(C)CCc2ccccc2)c1O` (stereo unspecified) yielded a solubility (kinetic) below 0.7 µg/mL.

In turn, `O=S(=O)(c1ccccc1)N1CCN(C(=S)NCCc2ccccc2)CC1` yielded a solubility (kinetic) of 0.5 µg/mL (≈ 1.28 µM).

`Cc1ccc(SCC(=O)NC2CC3CCC(C2)N3C)cc1` (stereo unspecified) came in with a solubility (kinetic) of 45.1 µg/mL (≈ 148 µM).

Compound `O=C(COC(=O)c1ccc([N+](=O)[O-])o1)Nc1ccc(F)cc1` displayed a solubility (kinetic) above 46.2 µg/mL.

As for `O=C(CN1CCN(c2ccc(F)cc2)CC1)NCc1ccc(Cl)cc1`, the kinetic solubility is 51.2 µg/mL (≈ 141 µM).

For `C=CCn1c(=O)c2ccccc2n2c(SCC(=O)NC(C)C)nnc12`, the solubility (kinetic) was above 53.6 µg/mL.

Consider `Cc1ccccc1N(CC(=O)N1CCCCCC1)S(C)(=O)=O`, for which the solubility (kinetic) was above 48.7 µg/mL.

As for `O=S1(=O)CCC(=Nc2ccc(Cl)cc2)c2ccsc21`, the solubility (kinetic) was determined as 20.3 µg/mL (≈ 65.1 µM).

`Cc1cc(O)ccc1NS(=O)(=O)c1ccc2c3c(cccc13)C(=O)N2` showed a solubility (kinetic) of 48.8 µg/mL (≈ 138 µM). Compared with the last compound, the solubility kinetic is about 2.4-fold higher.

Source of the values: PubChem BioAssay AID1996.
